From patent EP1038880B1, “Androstanes and pregnanes for allosteric modulation of GABA receptor” (priority 1994, dated 1995)

Target: GR complex
Experiment: [35S]TBPS binding assay (inhibition of [35S]TBPS binding, cerebral cortex P2 homogenate)
Parameters: species or system rat
Conditions: for IC50: 2 nM [35S]TBPS, rat cerebral cortex P2 homogenate; for IMAX: maximum inhibition of [35S]TBPS binding
Description: We performed several experiments to determine the nature of the modulation of [^35S]TBPS as affected by the compounds of the invention.
These procedures were performed as follows:
Brains from male Sprague-Dawley rats were removed immediately following sacrifice and the cerebral cortices dissected over ice. […] Briefly, the cortices were gently homogenized in 0.32 M sucrose followed by centrifugation at 1000 x g for 10 minutes. The supernatant was collected and centrifuged at 9000 x g for 20 minutes. The resultant P2 pellet was suspended as a 10% (original wet weight/volume) suspension in 50 mM Na/K phosphate buffer (pH 7.4) 200 mM NaCl to form the homogenate.
One hundred microliter […] aliquots of the P2 homogenate (0.5 milligrams (mg) protein) were incubated with 2 nanomolar (nM) [^35S]TBPS (70-110 curies/millimole; New England Nuclear, Boston, MA) in the presence or absence of the naturally occurring steroids or their synthetic derivatives to be tested. The tested compounds were dissolved in dimethylsulfoxide (Baker Chem. Co., Phillipsbury, NJ) and added to the incubation mixture in 5 µL aliquots. The incubation mixture was brought to a final volume of 1 mL with buffer. Non-specific binding was defined as binding in the presence of […] TBPS. The effect and specificity of GABA (Sigma Chem. Co., St. Louis, MO) was evaluated by performing all assays in the presence of GABA plus (+)bicuculline (Sigma Chem. Co.). maintained at 25°C for 90 minutes (steady state conditions) were terminated by rapid filtration through glass fiber filters (No. 32, Schleicher and Schuell, Keene, NH). Filter-bound radioactivity was quantitated by liquid scintillation spectrophotometry.
Various compounds were screened to determine their potential as modulators of [^35S]TBPS binding in vitro. These assays were performed in accordance with the above discussed procedures. […] It is an indication of a compound's in vitro potency. Maximum inhibition is an indication of a compound's in vitro efficacy.

| Structure (SMILES) | IC50 [µM] | IMAX [%] |
| --- | --- | --- |
| CC(=O)[C@H]1CC[C@H]2[C@@H]3CC[C@@H]4C[C@@](O)(C#Cc5ccc(C(F)(F)F)cc5)CC[C@]4(C)[C@H]3CC[C@]12C [3α-hydroxy-3β-(4'-trifluoromethylphenylethynyl)-5β-pregnan-20-one] | 0.052 | 87 |
| C[C@]12CC[C@@H](O)C[C@H]1CC[C@@H]1[C@@H]2CC[C@]2(C)[C@@H](C(=O)Cn3ccnc3)CC[C@@H]12 [3α-Hydroxy-21-(1'-imidazolyl)-5β-pregnan-20-one] | 0.073 | 57 |
| C[C@@]1(O)CC[C@@]2(C)[C@@H](CC[C@@H]3[C@@H]2CC[C@]2(C)[C@@H](C(=O)Cn4cnc5ccccc54)CC[C@@H]32)C1 [21-(1' benzimidazolyl)-3α-hydroxy-3β-methyl-5α-pregnan-20-one] | 0.109 | 95 |
| CC(=O)Oc1ccc(C#C[C@@]2(O)CC[C@@]3(C)[C@H](CC[C@@H]4[C@@H]3CC[C@]3(C)[C@@H](C(C)=O)CC[C@@H]43)C2)cc1 [3β-(4'-Acetoxyphenylethynyl)-3α-hydroxy-5β-pregnan-20-one] | 1.43 | 100 |
| CC(=O)[C@H]1CC[C@H]2[C@@H]3CC[C@@H]4C[C@@](O)(c5ccccc5)CC[C@]4(C)[C@H]3CC[C@]12C [3α-Hydroxy-3β-phenyl-5β-pregnan-20-one, 3α-hydroxy-3β-phenyl-5β-pregnan-20-one] | 0.382 | 86 |
| CC(=O)OCCC#CC1(O)CCC2(C)C(CCC3C2CCC2(C)C(C(C)=O)CCC32)C1 (stereo not drawn) [3β-(4'-Acetoxy-1'-butynyl)-3α-hydroxy-5β-pregnan-20-one] | 0.02 | 96 |
| CC(=O)[C@H]1CC[C@H]2[C@@H]3CC[C@@H]4C[C@@](O)(Cc5ccccc5)CC[C@]4(C)[C@H]3CC[C@]12C [3β-Benzyl-3α-hydroxy-5β-pregnan-20-one, 3α-hydroxy-3β-benzyl-5β-pregnan-20-one] | 0.109 | 102 |
| CC(=O)[C@H]1CC[C@H]2[C@@H]3CC[C@@H]4C[C@@](O)(C#Cc5ccc(Cl)cc5)CC[C@]4(C)[C@H]3CC[C@]12C [3β-(4'-chlorophenylethynyl)-3α-hydroxy-5β-pregnan-20-one] | 0.058 | 89 |
| C[C@]12CC[C@@H](O)C[C@H]1CC[C@@H]1[C@@H]2CC[C@]2(C)[C@@H](C(=O)Cn3cnc([N+](=O)[O-])c3)CC[C@@H]12 [3a-hydroxy-21-[1H-(4-nitro)imidazol-1-yl)-5β-pregnan-20-one] | 0.267 | 71 |
| CC(=O)[C@H]1CC[C@H]2[C@@H]3CC[C@@H]4C[C@@](O)(C#CCCCCO)CC[C@]4(C)[C@H]3CC[C@]12C [3β-(6-hydroxy-1-hexynyl)-3α-hydroxy-5β-pregnan-20-one] | 0.222 | 99 |
| C[C@]12C[C@H](O)[C@H]3[C@@H](CCC4=CC(=O)CC[C@@]43C)[C@@H]1CC[C@@H]2C(=O)CO [4-Pregnen-11β,21-diol-3,20-dione, reference compound] | > 1000 | 30 |
| C[C@]12CC[C@H]3[C@@H](CC[C@@H]4C[C@@](O)(C#CCCO)CC[C@@H]43)[C@@H]1CC[C@@H]2C(=O)Cn1nccn1 [3α-hydroxy-3β-(4-hydroxybutyn-1-yl)-21-(2H-1,2,3-triazol-2-yl)-5β-19-norpregnan-20-one] | 0.056 | 93 |
| CC12CCC(O)(C#CCCO)CC1CCC1C2CCC2(C)C(C(=O)Cn3cncn3)CCC12 (stereo not drawn) [3α-hydroxy-3β-(4-hydroxybutyn-1-yl)-21-(1,2,4-triazol-1-yl)-5β-pregnan-20-one] |  | 96 |
| C[C@]12CC[C@@H](O)C[C@@H]1CC[C@@H]1[C@@H]2CC[C@]2(C)[C@@H](C(=O)Cn3cccn3)CC[C@@H]12 [3α-hydroxy-21-(1'-pyrazolyl)-5α-pregnan-20-one] | 0.1 | 98 |
| CC(=O)[C@H]1CC[C@H]2[C@@H]3CC[C@@H]4C[C@@](O)(C#CCn5ccnc5)CC[C@]4(C)[C@H]3CC[C@]12C [3α-Hydroxy-3β-[3'-(N-imidazolyl)-1'-propynyl)-5β-pregnan-20-one] | 2.72 | 107 |
| CC(=O)[C@H]1CC[C@H]2[C@@H]3CC[C@@H]4C[C@@](O)(C#Cc5ccc(N(C)C)cc5)CC[C@]4(C)[C@H]3CC[C@]12C [3β-(4'-dimethylaminophenyl)ethynyl-3α-hydroxy-5β-pregnan-20-one] | 0.028 | 77 |
| CC(=O)[C@H]1CC[C@H]2[C@@H]3CCC4=CC(=O)CC[C@]4(C)[C@H]3CC[C@]12C [Progesterone, reference compound] | 5.2 | 100 |

| Structure (SMILES) | IC50 [µM] | IMAX [%] |
| --- | --- | --- |
| C#C[C@@]1(O)CC[C@@]2(C)[C@H](CC[C@@H]3[C@@H]2CC[C@]2(C)[C@@H](C(=O)Cn4cncn4)CC[C@@H]32)C1 [3β-ethynyl-3α-hydroxy-21-(1',2',4'-triazoyl)-5β-pregnan-20-one] | 0.127 | 98 |
| C[C@]12CC[C@@H](O)C[C@H]1CC[C@@H]1[C@@H]2CC[C@]2(C)[C@@H](C(=O)Cn3cncn3)CC[C@@H]12 [3α-Hydroxy-21-(1',2',4'-triazol-1-yl)-5β-pregnan-20-one] |  | 60 |
| C[C@]12CC[C@](O)(C#CCCO)C[C@H]1CC[C@@H]1[C@@H]2CC[C@]2(C)[C@@H](C(=O)Cn3ccnc3)CC[C@@H]12 [3α-Hydroxy-3β-(4-hydroxybutyn-1-yl)-21-(1-imidazolyl)-5β-pregnan-20-one] | 0.054 | 93 |
| CC(=O)[C@H]1CC[C@H]2[C@@H]3CC[C@@H]4C[C@@](O)(CCc5ccccc5)CC[C@]4(C)[C@H]3CC[C@]12C [3α-Hydroxy-3β-(2'-phenylethyl)-5β-pregnan-20-one] | 0.135 | 98 |
| CC12CC(N3CCOCC3)C(O)CC1CCC1C2CCC2(C)C(C(=O)Cn3cncn3)CCC12 (stereo not drawn) [3α-Hydroxy-2β-morpholinyl-21-[1'2'4'-triazolyl)]-5α-pregnan-20-one] | 1.55 | 97 |
| CC(=O)C1CCC2C3CCC4CC(O)(C#CCn5nccn5)CCC4(C)C3CCC12C (stereo not drawn) [3α-Hydroxy-3β-[3-(2'H-1,2,3-triazol-2'-yl)-1-propynyl]-5β-pregnan-20-one] | 0.066 | 98 |
| CC(=O)c1ccc(C#CC2(O)CCC3C(CCC4C3CCC3(C)C(C(C)=O)CCC43)C2)cc1 (stereo not drawn) [3β-(4'-Acetylphenyl)ethynyl-3α-hydroxy-5β-19-norpregnan-20-o] [3β-(4'-Acetylphenylethynyl)-3α-hydroxy-19-nor-5β-pregnan-20-one] | 0.006 | 90 |
| C[C@]12CC[C@@H](O)C[C@H]1CC[C@@H]1[C@@H]2CC[C@]2(C)[C@@H](C(=O)Cn3cnnn3)CC[C@@H]12 [3α-hydroxy-21-(1'H-1,2,3,4-tetrazol-1'-yl)-5β-pregnan-20-one] | 0.227 | 60 |
| C[C@]12CC[C@@H](O)C[C@H]1CC[C@@H]1[C@@H]2CC[C@]2(C)[C@@H](C(=O)Cn3ncnn3)CC[C@@H]12 [3α-Hydroxy-21-(2'H-1,2,3,4-tetrazol-2'-yl)-5β-pregnan-20-one] | 0.046 | 78 |
| CCOC(=O)c1ccc(C#C[C@@]2(O)CC[C@@]3(C)[C@H](CC[C@@H]4[C@@H]3CC[C@]3(C)[C@@H](C(C)=O)CC[C@@H]43)C2)cc1 [3α-hydroxy-3β-(4'-carboxyphenylethynyl)-5β-pregnan-20-one ethyl ester] |  | 98 |
| CC(=O)OCC(=O)c1ccc(C#C[C@@]2(O)CC[C@@]3(C)[C@H](CC[C@@H]4[C@@H]3CC[C@]3(C)[C@@H](C(C)=O)CC[C@@H]43)C2)cc1 [3α-hydroxy-3β-(4'-acetoxyacetylphenylethynyl)-5β-pregnan-20-one] | 0.171 | 91 |
| CC(=O)C1CCC2C3CCC4CC(O)(C#CC=O)CCC4(C)C3CCC12C (stereo not drawn) [3α-Hydroxy-3β-(3'-oxopropynyl)-5β-pregnan-20-one] | 1.72 | 76 |
| CC(C)CCC[C@@H](C)[C@H]1CC[C@H]2[C@@H]3CC=C4C[C@@H](O)CC[C@]4(C)[C@H]3CC[C@]12C [Cholesterol, reference compound] |  | 0 |
| CC(=O)c1ccc(C#CC2(O)CCC3C(CCC4C3CCC3(C)C(C(C)=O)CCC43)C2)cc1 (stereo not drawn) [3β-(4'-Acetylphenyl)ethynyl-3α-hydroxy-19-nor-20-one] | 0.014 | 103 |
| CC(=O)C#C[C@@]1(O)CC[C@@]2(C)[C@H](CC[C@@H]3[C@@H]2CC[C@]2(C)[C@@H](C(C)=O)CC[C@@H]32)C1 [3α-Hydroxy-3β-(3'-oxobutynyl)-5β-pregnan-20-one] | 2.69 | 107 |
| CC12CCC(O)(C#CCO)CC1CCC1C2CCC2(C)C(C(=O)Cn3ccnn3)CCC12 (stereo not drawn) [3α-hydroxy-3β-(3-hydroxypropyn-1-yl)-21-(1,2,3-triazol-1-yl)-5β-pregnan-20-one] | 1.09 | 101 |
